Like-named read-outs stand apart in the source and are kept apart here. A value given as a limit tells only on which side of the number the result lay.

The assay deals with T1, SHP2 enzyme (catalytic domain, amino acid sequence 224-528) (Homo sapiens, UniProt Q06124).
T1 construct: purchased GenScript
T1 sequence (Q06124 224-528): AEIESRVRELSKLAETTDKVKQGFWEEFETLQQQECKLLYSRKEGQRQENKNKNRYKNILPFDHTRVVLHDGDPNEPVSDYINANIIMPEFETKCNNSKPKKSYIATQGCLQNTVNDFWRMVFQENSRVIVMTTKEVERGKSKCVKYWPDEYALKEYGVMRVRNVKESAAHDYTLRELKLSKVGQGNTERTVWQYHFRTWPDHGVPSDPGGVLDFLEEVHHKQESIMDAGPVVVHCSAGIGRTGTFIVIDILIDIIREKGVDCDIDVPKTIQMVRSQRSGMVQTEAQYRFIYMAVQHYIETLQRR
As to the kind of experiment: SHP2 enzyme inhibition assay (DiFMUP substrate, fluorescence). Type of assay: biochemical. The following applies: for SHP2 IC50 times lower than control compound 11a-1: relative to 11a-1, IC50 = 0.108 µM. How it is done: This experiment evaluates the inhibitory effect of the test compounds on SHP2 enzyme activity by detecting the reaction between the human recombinant protein SHP2 enzyme and the substrate.
The stock solutions of the reaction buffer components were thawed and mixed homogeneously at room temperature, to prepare the reaction buffer (55 mM HEPES pH = 7.2 (Sigma, Cat. No. #PHR1428), 100 mM NaCl (Beyotime, Cat. No. #ST374, 5 M solution), 0.5 mM EDTA (Beyotime, Cat. No. #ST066), 1 mM DL-Dithiothreitol (DTT) (Sigma, Cat. No. #D9779), 0.002% BSA (Solarbio, Cat. No. #A8010), 0.001% Brij35 (Brij® L23 solution (Brij35) (Sigma, Cat. No. #B4184)). The SHP2 enzyme (catalytic domain, amino acid sequence 224-528, expressed and purified by GenScript) was thawed slowly on ice. 1 µL of this solution (1.37 mg/mL) was added to 386 µL of the reaction buffer to dilute it to 100 nM. Then, 120 µL of the 100 nM SHP2 enzyme solution was added to 2880 µL of reaction buffer to prepare a 4 nM SHP2 enzyme working solution. The test compounds and the specific inhibitor of SHP2 (11a-1, used as a positive control, Zeng, L. et al., J. Med. Chem. 2014, 57, 6594-6609) were prepared as 10 mM DMSO solutions. 10 µL of the 10 mM compound solution was mixed with 20 µL of DMSO solution, and then serially diluted 3-fold, resulting in 10 concentrations. 1 µL of the serially diluted solution was mixed with 99 µL of reaction buffer to obtain a 10-fold diluted compound working solution.
A 96-well black half-area microplate (Greiner, catalog #675076) was used. 25 µL of 4 nM SHP2 enzyme working solution and 5 µL of 10x compound working solution were added to each well and incubated at room temperature for 30 minutes. 15 µL of DiFMUP substrate (Thermo Fisher Scientific, catalog #D6567) was added to 2985 µL of reaction buffer to prepare a 50 µM substrate working solution. After incubation of the compounds and SHP2 enzyme, 20 µL of the 50 µM substrate working solution was added to each well and incubated at room temperature for 5 minutes. The plate was then read on a multi-mode microplate reader (BioTek, Synergy H1) at 340 nm/450 nm fluorescence.
Data were analyzed using GraphPad Prism 9.0 software. A non-linear S-curve regression dose-response-inhibition equation was used to fit the data and generate the dose-response curve, from which the IC50 value was calculated. [formula]

Where [1] appears, read: SHP2 catalytic domain, DiFMUP substrate, 30 min pre-incubation, read-out: S HP2 I C50.

For the compound `CC1(O)CCC2(CCN(c3ccc(NC(=O)C(=O)Nc4ccc(-c5cc6cc(F)c(-c7nnn[nH]7)cc6n5C5CCC5)cc4)cc3)C2)C1` (centres unmarked) [Example 93], the IC50 under setting [1] is 56 nM.

Consider `CC(C)(O)C1CCN(c2ccc(NC(=O)C(=O)Nc3ccc(-c4cc5cc(F)c(-c6nnn[nH]6)cc5n4CC(F)(F)F)cc3)cc2)CC1` [Example 39], for which the IC50 under setting [1] was 43 nM.

Regarding `O=C(Nc1ccc(-c2cc3cc(F)c(-c4nnn[nH]4)cc3n2C2CCC2)cc1)C(=O)Nc1ccc(N2CCOC3(CC3)C2)cc1` [Example 50], under setting [1], the IC50 is 113 nM.

Consider `O=C(Nc1ccc(-c2cc3cc(F)c(-c4nnn[nH]4)cc3n2C2CCC2)cc1)C(=O)Nc1ccc(N2CC3(CCC(O)CC3)C2)cc1` [Example 81], for which the IC50 under setting [1] stood at 70 nM.

For `CC1(n2c(-c3ccc(NC(=O)C(=O)Nc4ccc(N5CCC(C6COC6)CC5)cc4)cc3)cc3cc(F)c(-c4nnn[nH]4)cc32)CCC1` [Example 21], the IC50 under setting [1] stood at 68 nM.

`CC1(CO)CCN(c2ccc(NC(=O)C(=O)Nc3ccc(-c4cc5cc(F)c(-c6nnn[nH]6)cc5n4C4(C)CCC4)cc3)cc2)CC1` [Example 41]: the IC50 under setting [1] came to 63 nM.

As for `CCC1CN(c2ccc(NC(=O)C(=O)Nc3ccc(-c4cc5cc(F)c(-c6nnn[nH]6)cc5n4C4CCC4)cc3)cc2)CCO1` (centres unmarked) [Example 48], the IC50 under setting [1] came to 50 nM.

Regarding `O=C(Nc1ccc(N2CCC3(CCOC3)CC2)cc1)C(=O)NC1CCN(c2cc3cc(F)c(-c4nnn[nH]4)cc3n2C2CCC2)CC1` [Example 66], the IC50 under setting [1] was found to be 291 nM.

Turning to `O=C(Nc1ccc(C2=CCOC2)cc1)C(=O)Nc1ccc(-c2cc3cc(F)c(-c4nnn[nH]4)cc3n2C2CCC2)cc1` [Example 51], the IC50 under setting [1] was determined as 57 nM.

As to `CC1(CO)CCN(c2ccc(NC(=O)C(=O)Nc3ccc(-c4cc5cc(F)c(-c6nnn[nH]6)cc5n4C4(C)CC4)cc3)cc2)CC1` [Example 42], the IC50 under setting [1] was 179 nM.

As for `CC1(n2c(-c3ccc(NC(=O)C(=O)Nc4ccc(N5CCC6(CC(O)C6)C5)cc4)cc3)cc3cc(F)c(-c4nnn[nH]4)cc32)CCC1` (centres unmarked) [Example 90], under setting [1], the IC50 was determined as 139 nM.

In the case of `O=C(Nc1ccc(-c2cc3cc(F)c(-c4nnn[nH]4)cc3n2C23CC(C2)C3)cc1)C(=O)Nc1ccc(N2CCC3(CCOC3)CC2)cc1` [Example 71], the IC50 under setting [1] came out at 50 nM.

In the case of `O=C(Nc1ccc(-c2cc3cc(F)c(-c4nnn[nH]4)cc3n2C2CCC2)cc1)C(=O)Nc1ccc(N2CCC3(CCC(CO)CC3)CC2)cc1` [Example 112], the IC50 under setting [1] worked out at 105 nM.

Turning to `O=C(Nc1ccc(-c2cc3cc(F)c(-c4nnn[nH]4)cc3n2C2CCC2)cc1)C(=O)Nc1ccc(N2CC3(CCC(O)C3)C2)cc1` (centres unmarked) [Example 79], the IC50 under setting [1] was determined as 108 nM.

Turning to `CC(C)(O)C1CCC2(CC1)CN(c1ccc(NC(=O)C(=O)Nc3ccc(-c4cc5cc(F)c(-c6nnn[nH]6)cc5n4C4(C)CCC4)cc3)cc1)C2` [Example 88], the IC50 under setting [1] was found to be 148 nM.

For `CC1(n2c(-c3ccc(NC(=O)C(=O)Nc4ccc(N5CC6(CCCOC6)C5)cc4)cc3)cc3cc(F)c(-c4nnn[nH]4)cc32)CCC1` [Example 56], the IC50 under setting [1] is 74 nM.

`O=C(Nc1ccc(-c2cc3cc(F)c(-c4nnn[nH]4)cc3n2CC2CC2)cc1)C(=O)Nc1ccc(N2CCC3(CCOC3)CC2)cc1` [Example 72]: under setting [1], the IC50 is 46 nM.

Regarding `O=C(Nc1ccc(-c2cc3cc(F)c(-c4nnn[nH]4)cc3n2C2CCC2)cc1)C(=O)Nc1ccc(N2CC(CCO)C2)cc1` [Example 9], the IC50 worked out at 87 nM.

With `O=C(Nc1ccc(N2CCC3(CCOC3)CC2)cc1)C(=O)NC12CC(c3cc4cc(F)c(-c5nnn[nH]5)cc4n3C3CCC3)(C1)C2` [Example 65], the IC50 under setting [1] amounted to 198 nM.

On to `CCC1(CO)CCN(c2ccc(NC(=O)C(=O)Nc3ccc(-c4cc5cc(F)c(-c6nnn[nH]6)cc5n4C4CCC4)cc3)cc2)CC1` [Example 43], for which the IC50 under setting [1] was 52 nM.

With `O=C(Nc1ccc(-c2cc3cc(F)c(-c4nnn[nH]4)c(F)c3n2C2CCC2)cc1)C(=O)Nc1ccc(N2CCC3(CCOC3)CC2)cc1` [Example 126], the IC50 under setting [1] was 23 nM.

On to `O=C(Nc1ccc(-c2cc3cc(F)c(-c4nnn[nH]4)cc3n2C2CCC2)cc1)C(=O)Nc1ccc(N2CCC3(CCCO3)C2)cc1` (centres unmarked) [Example 60], for which, under setting [1], the IC50 is 64 nM.

`CC1CN(c2ccc(NC(=O)C(=O)Nc3ccc(-c4cc5cc(F)c(-c6nnn[nH]6)cc5n4C4CCC4)cc3)cc2)CC1CO` (centres unmarked) [Example 18]: under setting [1], the IC50 came to 74 nM.

`O=C(Nc1ccc(-c2cc3cc(F)c(-c4nnn[nH]4)cc3n2C2CCC2)cc1)C(=O)Nc1ccc(N2CC3(C2)CC(O)(C(F)(F)F)C3)cc1` [Example 78]: the IC50 under setting [1] was determined as 74 nM.

As to `O=C(Nc1ccc(-c2cc3cc(F)c(-c4nnn[nH]4)cc3n2C2CCC2)cc1)C(=O)Nc1ccc(N2CCC3(CCCCO3)CC2)cc1` [Example 73], the IC50 under setting [1] came out at 48 nM.

Take `CC1(n2c(-c3ccc(NC(=O)C(=O)Nc4ccc(N5CCC(CO)CC5)cc4)cc3)cc3cc(F)c(-c4nnn[nH]4)cc32)CCC1` [Example 24]: under setting [1], the IC50 came to 271 nM.

Consider `O=C(Nc1ccc(-c2ccsc2)cc1)C(=O)Nc1ccc(-c2cc3cc(O)c(-c4nnn[nH]4)cc3n2C2CCC2)cc1` [Example 3], for which the IC50 under setting [1] amounted to 278 nM.

On to `O=C(Nc1ccc(-c2cc3cc(F)c(-c4nnn[nH]4)cc3n2C2CCC2)cc1)C(=O)Nc1ccc(N2CCC(F)(CO)CC2)cc1` [Example 45], for which the IC50 under setting [1] amounted to 55 nM.

As to `CC(C)(O)C1CCN(c2ccc(NC(=O)C(=O)Nc3ccc(-c4cc5cc(F)c(-c6nnn[nH]6)cc5n4C4(C)CCC4)cc3)cc2)CC1` [Example 34], the IC50 under setting [1] was 72 nM.

Regarding `COCC1(CO)CCN(c2ccc(NC(=O)C(=O)Nc3ccc(-c4cc5cc(F)c(-c6nnn[nH]6)cc5n4C4CCC4)cc3)cc2)CC1` [Example 44], under setting [1], the IC50 came out at 57 nM.

For the compound `O=C(Nc1ccc(-c2cc3cc(F)c(-c4nnn[nH]4)cc3n2C2CCC2)cc1)C(=O)Nc1ccc(N2CCC3(CC2)COC3)cc1` [Example 63], the “SHP2 IC50 times lower than control compound 11a-1” value was 3-4 times. Further, the IC50 under setting [1] was 38 nM.

For the compound `O=C(Nc1ccc(-c2cc3cc(F)c(-c4nnn[nH]4)cc3n2C2CCC2)cc1)C(=O)Nc1ccc(N2CC3(COC3)C2)cc1` [Example 53], the IC50 under setting [1] is 64 nM.

Regarding `N#Cc1nnc(-c2cc3c(cc2F)cc(-c2ccc(NC(=O)C(=O)Nc4ccc(N5CCC6(CCOC6)CC5)cc4)cc2)n3C2CCC2)[nH]1` [Example 127], under setting [1], the IC50 was 144 nM.

Take `O=C(Nc1ccc(-c2cc3cc(F)c(-c4nnn[nH]4)cc3n2C2CCC2)cc1)C(=O)Nc1ccc(N2CC(CO)C2)cc1` [Example 8]: under setting [1], the IC50 turned out to be 130 nM.

As to `O=C(Nc1ccc(-c2cc3cc(F)c(-c4nnn[nH]4)cc3n2C2CCC2)cc1)C(=O)Nc1ccc(N2CC3(CCC(CO)CC3)C2)cc1` [Example 85], the IC50 under setting [1] is 47 nM.

Turning to `CC1(C#N)CCN(c2ccc(NC(=O)C(=O)Nc3ccc(-c4cc5cc(F)c(-c6nnn[nH]6)cc5n4C4CCC4)cc3)cc2)C1` (centres unmarked) [Example 11], the “SHP2 IC50 times lower than control compound 11a-1” value was 3-4 times. The IC50 under setting [1] was 30 nM.

Regarding `Cc1nnc(-c2cc3c(cc2F)cc(-c2ccc(NC(=O)C(=O)Nc4ccc(N5CCC6(CCOC6)CC5)cc4)cc2)n3C2CCC2)[nH]1` [Example 128], the IC50 under setting [1] was above 10000 nM.

Consider `CC(O)C1CCN(c2ccc(NC(=O)C(=O)Nc3ccc(-c4cc5cc(F)c(-c6nnn[nH]6)cc5n4C4CCC4)cc3)cc2)C1` (centres unmarked) [Example 15], for which the IC50 under setting [1] was determined as 183 nM.

`CC1CN(c2ccc(NC(=O)C(=O)Nc3ccc(-c4cc5cc(F)c(-c6nnn[nH]6)cc5n4C4CCC4)cc3)cc2)CCC1CO` (centres unmarked) [Example 46]: the IC50 under setting [1] came out at 45 nM.

Consider `O=C(Nc1ccc(-c2ccsc2)cc1)C(=O)Nc1ccc(-c2cc3ccc(-c4cnn[nH]4)cc3n2C2CCC2)cc1` [Example 121], for which the IC50 under setting [1] is above 10000 nM.

Regarding `CC(C)(O)C1CCN(c2ccc(NC(=O)C(=O)Nc3ccc(-c4cc5cc(F)c(-c6nnn[nH]6)cc5n4CC4CC4)cc3)cc2)CC1` [Example 37], the IC50 under setting [1] was determined as 44 nM.

As to `CC(C)(O)C1CCC2(CC1)CN(c1ccc(NC(=O)C(=O)Nc3ccc(-c4cc5cc(F)c(-c6nnn[nH]6)cc5n4C4CCC4)cc3)cc1)C2` [Example 87], the IC50 under setting [1] came to 89 nM.

The record behind these values is patent EP4741383A1, “COMPOUND AND USE THEREOF AS ANTI-CANCER DRUG” (Tyligand Bioscience (Shanghai) Limited, priority 2023, dated 2025).
